Here are results for four compounds from ChEMBL document CHEMBL1128626, “The synthesis and biological activity of enediyne minor groove binding hybrids” (Bioorg Med Chem Lett, 1995).

Experiment [1] concerns Nucleic Acid. The experiment in a line: Concentration of drug which induced cleavage of 50% of PM2 supercoiled DNA in the presence of beta-mercaptoethanol. The experiment is classed as functional.
In the next experiment the test system is HCT-116. The experiment in a line: Cytotoxicity against HCT116 human colon tumor cell line. The experiment is classed as functional, cell-based.
For experiment [2], the system named is Nucleic Acid. The experiment in a line: Concentration of drug which induced cleavage of 50% of PM2 supercoiled DNA in the absence of beta-mercaptoethanol. The experiment is classed as functional.

Some results are limits rather than exact numbers.

With `Cn1cc(NC(=O)c2cc(NC(=O)Cc3ccc(COCO[C@@]45C#C/C=C\C#C[C@H](O)C(=CCC4)C5=O)cc3)cn2C)cc1C(=O)NCCC(=N)N`, the Cleavage in the experiment with Nucleic Acid [1] came to 10 µM; in the experiment on Nucleic Acid [2] it was 100 µM. The compound also gave an IC50 in the experiment with HCT-116 of 7.4 µM.
As for `O=C1C2=CCC[C@@]1(O)C#C/C=C\C#C[C@@H]2O`, the Cleavage worked out at 100 µM in the experiment with Nucleic Acid [1] and 1000 µM in the experiment with Nucleic Acid [2].
For the compound `Cn1cc(NC(=O)Cc2ccc(CO[C@H]3C#C/C=C\C#C[C@]4(O)CCC=C3C4=O)cc2)cc1C(=O)Cc1cc(C(=O)NCCC(=N)N)n(C)c1`, the Cleavage is less than 1 µM in the experiment with Nucleic Acid [1] and 10 µM in the experiment with Nucleic Acid [2]. Half-maximal inhibition in the experiment on HCT-116 (IC50) required 640 µM.
In the case of `C=C(OC)C(=O)Nc1cc(OC)c(OC)cc1C(=O)O[C@H]1C[C@H](O[C@@H]2C(=O)C(NC(=O)OC)=C3/C(=C\CSSSC)[C@]2(O)C#C/C=C\C#C[C@@H]3O[C@@H]2O[C@H](C)[C@@H](NO[C@H]3C[C@H](O)[C@H](SC)[C@@H](C)O3)[C@H](O)[C@H]2O[C@H]2C[C@H](OC)[C@@H](NC(C)C)CO2)O[C@@H](C)[C@H]1O` [ESPERAMICIN A1], the Cleavage with Nucleic Acid [1] is less than 1 µM; in the experiment on Nucleic Acid [2] it was 10 µM. Besides, the half-inhibitory concentration (IC50) in the experiment on HCT-116 worked out at 1e-06 µM.
